# Measured values: PubChem BioAssay (NCI)
#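 Briefly, cells in 96-well plates were exposed to five compound concentrations for 48 h, and endpoints were estimated by linear interpolation. Here, GI50 denotes the concentration required for 50% inhibition of growth. TGI denotes the concentration required for complete inhibition of growth.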
# What was measured:
# Experiment in all cases: growth of human tumour cells (NCI), 48 h
# NCI-H226 lung = system: NCI-H226 lung
# NCI-H23 lung = system: NCI-H23 lung
# NCI-H460 lung = system: NCI-H460 lung
# NCI-H522 lung = system: NCI-H522 lung
# NCI/ADR-RES ovarian = system: NCI/ADR-RES ovarian
# OVCAR-3 ovarian = system: OVCAR-3 ovarian
# OVCAR-4 ovarian = system: OVCAR-4 ovarian
# OVCAR-5 ovarian = system: OVCAR-5 ovarian
# OVCAR-8 ovarian = system: OVCAR-8 ovarian
# PC-3 prostate = system: PC-3 prostate
# RPMI-8226 leukemia = system: RPMI-8226 leukemia
# RXF 393 renal = system: RXF 393 renal
# SF-268 CNS = system: SF-268 CNS
# SF-295 CNS = system: SF-295 CNS
# SF-539 CNS = system: SF-539 CNS
# SK-MEL-2 melanoma = system: SK-MEL-2 melanoma
# SK-MEL-28 melanoma = system: SK-MEL-28 melanoma
# SK-MEL-5 melanoma = system: SK-MEL-5 melanoma
# SK-OV-3 ovarian = system: SK-OV-3 ovarian
# SN12C renal = system: SN12C renal
# SNB-19 CNS = system: SNB-19 CNS
# SNB-75 CNS = system: SNB-75 CNS
# SR leukemia = system: SR leukemia
# SW-620 colon = system: SW-620 colon
# T-47D breast = system: T-47D breast
# TK-10 renal = system: TK-10 renal
# U251 CNS = system: U251 CNS
# UACC-257 melanoma = system: UACC-257 melanoma
# UACC-62 melanoma = system: UACC-62 melanoma
# UO-31 renal = system: UO-31 renal
smiles,measurement,setting,value
CCOC(=O)C(Cc1ccccc1)N1C(=O)/C(=C/N2N=C(c3ccc(OC)cc3)CC2c2ccc3ccccc3c2)SC1=S (centres undefined),TGI,NCI-H226 lung,12.8 µM
same,GI50,NCI-H23 lung,3.47 µM
same,TGI,NCI-H23 lung,14.5 µM
same,GI50,NCI-H460 lung,3.19 µM
same,TGI,NCI-H460 lung,13.8 µM
same,GI50,NCI-H522 lung,2.49 µM
same,TGI,NCI-H522 lung,8.88 µM
same,GI50,NCI/ADR-RES ovarian,14.1 µM
same,TGI,NCI/ADR-RES ovarian,91.3 µM
same,GI50,OVCAR-3 ovarian,3.21 µM
same,TGI,OVCAR-3 ovarian,11.7 µM
same,GI50,OVCAR-4 ovarian,6.63 µM
same,TGI,OVCAR-4 ovarian,40.1 µM
same,GI50,OVCAR-5 ovarian,13.6 µM
same,TGI,OVCAR-5 ovarian,27.2 µM
same,GI50,OVCAR-8 ovarian,3.57 µM
same,TGI,OVCAR-8 ovarian,15.3 µM
same,GI50,PC-3 prostate,3.78 µM
same,TGI,PC-3 prostate,40.9 µM
same,GI50,RPMI-8226 leukemia,2.79 µM
same,TGI,RPMI-8226 leukemia,> 100 µM
same,GI50,RXF 393 renal,2.22 µM
same,TGI,RXF 393 renal,6.36 µM
same,GI50,SF-268 CNS,3.47 µM
same,TGI,SF-268 CNS,22.9 µM
same,GI50,SF-295 CNS,2.11 µM
same,TGI,SF-295 CNS,7.21 µM
same,GI50,SF-539 CNS,3.21 µM
same,TGI,SF-539 CNS,10.4 µM
same,GI50,SK-MEL-2 melanoma,2.18 µM
same,TGI,SK-MEL-2 melanoma,5.03 µM
same,GI50,SK-MEL-28 melanoma,3.5 µM
same,TGI,SK-MEL-28 melanoma,13.1 µM
same,GI50,SK-MEL-5 melanoma,2.24 µM
same,TGI,SK-MEL-5 melanoma,5.51 µM
same,GI50,SK-OV-3 ovarian,5.28 µM
same,TGI,SK-OV-3 ovarian,20.6 µM
same,GI50,SN12C renal,3.34 µM
same,TGI,SN12C renal,13.2 µM
same,GI50,SNB-19 CNS,3.35 µM
same,TGI,SNB-19 CNS,16.4 µM
same,GI50,SNB-75 CNS,2.15 µM
same,TGI,SNB-75 CNS,19.3 µM
same,GI50,SR leukemia,7.1 µM
same,TGI,SR leukemia,> 100 µM
same,GI50,SW-620 colon,2.57 µM
same,TGI,SW-620 colon,17 µM
same,GI50,T-47D breast,3.06 µM
same,TGI,T-47D breast,34.1 µM
same,GI50,TK-10 renal,4.97 µM
same,TGI,TK-10 renal,19 µM
same,GI50,U251 CNS,3.26 µM
same,TGI,U251 CNS,20.4 µM
same,GI50,UACC-257 melanoma,5.44 µM
same,TGI,UACC-257 melanoma,23.1 µM
same,GI50,UACC-62 melanoma,2.33 µM
same,TGI,UACC-62 melanoma,6.97 µM
same,GI50,UO-31 renal,4.86 µM
same,TGI,UO-31 renal,18.5 µM
